Test results reported in patent publication US20250115583A1, “BICYCLIC INDAZOLE GLUCOCORTICOID RECEPTOR ANTAGONISTS” (Corcept Therapeutics Incorporated, priority 2021, published 2025).
pKi: −log10 of the molar value.

Target: glucocorticoid receptor (Homo sapiens (Human), UniProt P04150)
Test: HepG2 TAT assay: inhibition of dexamethasone-induced tyrosine aminotransferase (TAT) activity
Format: cell-based
Conditions: HepG2 cells, challenge of 100 nM dexamethasone, 18-24 hr; IC50 converted to Ki by Cheng and Prusoff equation
Protocol: Glucocorticoid mediated activation of TAT occurs by transactivation of glucocorticoid response elements in the TAT promoter by glucocorticoid receptor-agonist complex.
HepG2 cells were cultured using MEME media supplemented with 10% (v/v) foetal bovine serum; 2 mM L-glutamine and 1% (v/v) NEAA at 37° C., 5%/95% (v/v) CO2/air.
Compounds were serially half log diluted in 100% (v/v) dimethylsulphoxide from a 10 mM stock.
HepG2 cells were then lysed with 30 μl of cell lysis buffer containing a protease inhibitor cocktail for 15 minutes at 4° C. […] After 2 hours incubation at 37° C. the reaction was terminated by the addition of 15 μl of 10M aqueous potassium hydroxide solution, and the plates incubated for a further 30 minutes at 37° C.
[compound] and fitting the data to a 4 parameter logistic equation.

Chain of glucocorticoid receptor (P04150 whole entry): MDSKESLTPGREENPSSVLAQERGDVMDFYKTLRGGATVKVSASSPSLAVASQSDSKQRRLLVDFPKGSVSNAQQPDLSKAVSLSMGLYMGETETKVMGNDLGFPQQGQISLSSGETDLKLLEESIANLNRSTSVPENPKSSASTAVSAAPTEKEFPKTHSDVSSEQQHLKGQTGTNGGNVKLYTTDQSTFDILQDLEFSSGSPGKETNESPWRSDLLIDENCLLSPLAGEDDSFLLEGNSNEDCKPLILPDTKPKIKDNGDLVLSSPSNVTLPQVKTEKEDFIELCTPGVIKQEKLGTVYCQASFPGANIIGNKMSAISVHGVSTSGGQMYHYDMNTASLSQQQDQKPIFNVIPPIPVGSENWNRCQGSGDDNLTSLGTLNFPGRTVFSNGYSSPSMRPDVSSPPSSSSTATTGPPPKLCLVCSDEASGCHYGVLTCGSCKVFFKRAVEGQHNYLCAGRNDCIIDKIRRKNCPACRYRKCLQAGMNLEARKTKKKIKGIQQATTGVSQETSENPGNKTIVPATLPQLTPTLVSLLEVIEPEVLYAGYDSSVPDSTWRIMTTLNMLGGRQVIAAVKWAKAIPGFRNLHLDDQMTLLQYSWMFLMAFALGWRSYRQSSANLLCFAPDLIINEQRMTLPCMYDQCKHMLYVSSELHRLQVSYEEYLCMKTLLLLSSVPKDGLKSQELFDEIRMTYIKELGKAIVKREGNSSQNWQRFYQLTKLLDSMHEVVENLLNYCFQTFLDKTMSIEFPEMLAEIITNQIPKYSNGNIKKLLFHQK

| pKi | Compound |
| --- | --- |
| 7.82 | Cc1cc2c(cnn2-c2ccc(F)cc2)cc1[C@@]12CN(C(=O)c3cccc(N4CCOCC4)c3)C[C@@H]1[C@H]2c1ccccc1 (stereo in doubt) [Example 142, (1-(1-(4-fluorophenyl)-6-methyl-1H-indazol-5-yl)-6-phenyl-3-azabicyclo[3.1.0]hexan-3-yl)(3-morpholinophenyl)methanone] |
| 6.62 | Cc1noc([C@@H]2[C@H]3CN(S(=O)(=O)c4cnn(C)n4)C[C@]32c2cc3cnn(-c4ccc(F)cc4)c3cc2C)n1 (stereo in doubt) [Example 131, 5-(1-(1-(4-fluorophenyl)-6-methyl-1H-indazol-5-yl)-3-((2-methyl-2H-1,2,3-triazol-4-yl)sulfonyl)-3-azabicyclo[3.1.0]hexan-6-yl)-3-methyl-1,2,4-oxadiazole] |
| 7.28 | CC(=O)N1C[C@@H]2[C@@H](c3ccccc3)[C@]2(c2cc3cnn(-c4ccc(F)cc4)c3cc2C)C1 (single isomer, unassigned) [Example 111, 1-(1-(1-(4-fluorophenyl)-6-methyl-1H-indazol-5-yl)-6-phenyl-3-azabicyclo[3.1.0]hexan-3-yl)ethan-1-one] |
| 7.31 | Cc1cc2c(cnn2-c2ccc(F)cc2)cc1[C@@]12CN(C(=O)N3CCOCC3)C[C@@H]1[C@H]2c1ccccc1 (stereo in doubt) [Example 121, (1-(1-(4-fluorophenyl)-6-methyl-1H-indazol-5-yl)-6-phenyl-3-azabicyclo[3.1.0]hexan-3-yl)(morpholino)methanone] |
| 7.55 | Cc1cc2c(cnn2-c2ccc(F)cc2)cc1[C@@]12CN(S(=O)(=O)N3CCCC3)C[C@@H]1[C@H]2c1ccccc1 (single isomer, unassigned) [Example 99] |
| 7.26 | Cc1cc2c(cnn2-c2ccc(F)cc2)cc1[C@@]12CN(S(=O)(=O)c3cnn(C)n3)C[C@@H]1[C@H]2c1nc2ccccc2o1 [Example 134, 2-(1-(1-(4-fluorophenyl)-6-methyl-1H-indazol-5-yl)-3-((2-methyl-2H-1,2,3-triazol-4-yl)sulfonyl)-3-azabicyclo[3.1.0]hexan-6-yl)benzo[d]oxazole] |
| 7.68 | Cc1cc2c(cnn2-c2ccc(F)cc2)cc1[C@@]12CN(C(=O)c3ccc(C4CC4)cn3)C[C@@H]1[C@H]2c1ccccc1 (single isomer, unassigned) [Example 167, (5-cyclopropylpyridin-2-yl)(1-(1-(4-fluorophenyl)-6-methyl-1H-indazol-5-yl)-6-phenyl-3-azabicyclo[3.1.0]hexan-3-yl)methanone] |
| 6.46 | Cc1cc2c(cnn2-c2ccc(F)cc2)cc1[C@@]12CN(S(=O)(=O)c3cnn(C)n3)C[C@@H]1[C@H]2Cn1cccn1 (stereo in doubt) [Example 132, 5-(6-((1H-pyrazol-1-yl)methyl)-3-((2-methyl-2H-1,2,3-triazol-4-yl)sulfonyl)-3-azabicyclo[3.1.0]hexan-1-yl)-1-(4-fluorophenyl)-6-methyl-1H-indazole] |

Second part, the molecule before the results:

| Compound | pKi |
| --- | --- |
| CCCn1cc(S(=O)(=O)N2C[C@@H]3[C@@H](c4ccccc4)[C@]3(c3cc4cnn(-c5ccc(F)cc5)c4cc3C)C2)cn1 (single isomer, unassigned) [Example 69, 1-(4-fluorophenyl)-6-methyl-5-(6-phenyl-3-((1-propyl-1H-pyrazol-4-yl)sulfonyl)-3-azabicyclo[3.1.0]hexan-1-yl)-1H-indazole] | 7.62 |
| Cc1cc2c(cnn2-c2ccc(F)cc2)cc1[C@@]12CN(S(=O)(=O)c3cnn(C)n3)C[C@@H]1[C@@H]2CO (stereo in doubt) [Example 48, (1-(1-(4-fluorophenyl)-6-methyl-1H-indazol-5-yl)-3-((2-methyl-2H-1,2,3-triazol-4-yl)sulfonyl)-3-azabicyclo[3.1.0]hexan-6-yl) methanol] | 6.24 |
| Cc1cc2c(cnn2-c2ccc(F)cc2)cc1C12CN(S(=O)(=O)c3cnn(C)c3)CC1CC(F)(c1ccccc1)C2 (stereo not drawn) [Example 4, 5-(5-fluoro-2-((1-methyl-1H-pyrazol-4-yl)sulfonyl)-5-phenylhexahydrocyclopenta[c]pyrrol-3a(1H)-yl)-1-(4-fluorophenyl)-6-methyl-1H-indazole] | 6.27 |
| Cc1cc2c(cnn2-c2ccc(F)cc2)cc1C12CN(S(C)(=O)=O)CC1CC(O)(c1ccccc1)C2 (stereo not drawn) [Example 9] | 6.89 |
| Cc1cc2c(cnn2-c2ccc(F)cc2)cc1[C@@]12CN(S(C)(=O)=O)C[C@@H]1[C@H]2c1ccccc1 [Example 77] | 7.41 |
| Cc1cc2c(cnn2-c2ccc(F)cc2)cc1[C@@]12CN(S(=O)(=O)c3cnn(C)n3)C[C@@H]1[C@H]2c1ccccc1 [Example 71] | 7.82 |
| Cc1cc2c(cnn2-c2ccc(F)cc2)cc1[C@]12CN(S(=O)(=O)c3cnn(C)n3)C[C@H]1[C@@H]2c1ccccc1 [Example 72] | 6.80 |
| Cc1cc2c(cnn2-c2ccc(F)cc2)cc1C12CC(OCc3ccccc3)CC1CN(C(=O)OC(C)(C)C)C2 (stereo not drawn) [Example 35, tert-butyl 5-(benzyloxy)-3a-(1-(4-fluorophenyl)-6-methyl-1H-indazol-5-yl)hexahydrocyclopenta[c]pyrrole-2(1H)-carboxylate] | 6.80 |
| CO[C@]1(c2ccccc2)C[C@@H]2CN(S(=O)(=O)c3cncc(F)c3)C[C@]2(c2cc3cnn(-c4ccc(F)cc4)c3cc2C)C1 [Example 25] | 7.28 |
| Cc1cc2c(cnn2-c2ccc(F)cc2)cc1C12CC(Oc3ccccc3)CC1CN(S(C)(=O)=O)C2 (stereo not drawn) [Example 37, 1-(4-fluorophenyl)-6-methyl-5-(2-(methylsulfonyl)-5-phenoxyhexahydrocyclopenta[c]pyrrol-3a(1H)-yl)-1H-indazole] | 6.77 |
| COCCS(=O)(=O)N1C[C@@H]2[C@@H](c3ccccc3)[C@]2(c2cc3cnn(-c4ccc(F)cc4)c3cc2C)C1 [Example 86] | 7.49 |
| CCn1ccc(S(=O)(=O)N2C[C@@H]3[C@@H](c4ccccc4)[C@]3(c3cc4cnn(-c5ccc(F)cc5)c4cc3C)C2)n1 [Example 92] | 8.02 |
| Cc1cc2c(cnn2-c2ccc(F)cc2)cc1[C@]12CN(S(=O)(=O)c3cnn(C)n3)C[C@H]1[C@@H]2C(=O)Nc1ccc(F)cn1 (stereo in doubt) [Example 57, 1-(1-(4-fluorophenyl)-6-methyl-1H-indazol-5-yl)-N-(5-fluoropyridin-2-yl)-3-((2-methyl-2H-1,2,3-triazol-4-yl)sulfonyl)-3-azabicyclo[3.1.0]hexane-6-carboxamide] | 6.72 |
| Cc1cc2c(cnn2-c2ccc(F)cc2)cc1[C@]12CN(S(=O)(=O)c3cnn(C)n3)C[C@H]1[C@@H]2C(=O)NC1CCC1 [Example 60] | 6.70 |
| CCn1cc(S(=O)(=O)N2C[C@@H]3C[C@@](OC)(c4ccccc4)C[C@]3(c3cc4cnn(-c5ccc(F)cc5)c4cc3C)C2)cn1 [Example 21] | 7.43 |
| CO[C@@]1(c2ccccc2)C[C@H]2CN(S(=O)(=O)c3cnn(C(C)C)n3)C[C@@]2(c2cc3cnn(-c4ccc(F)cc4)c3cc2C)C1 [Example 23] | 7.52 |
| Cc1cc2c(cnn2-c2ccc(F)cc2)cc1[C@@]12CN(S(=O)(=O)C3CC3)C[C@@H]1[C@H]2c1ccccc1 [Example 85] | 7.68 |
| Cc1cc2c(cnn2-c2ccc(F)cc2)cc1[C@]12CN(S(=O)(=O)c3cnn(C)c3)C[C@H]1[C@@H]2c1ccccc1 [Example 73] | 7.44 |
| COC1(c2ccccc2)CC2CN(S(C)(=O)=O)CC2(c2cc3cnn(-c4ccc(F)cc4)c3cc2C)C1 (stereo not drawn) [Example 13] | 7.11 |
